Like-named read-outs stand apart in the source and are kept apart here.
Assays:
[1] = tested on: Mycobacterium 607; details: cup test; standard value; cited from earlier work
[2] = tested on: Mycobacterium 607; assay: cup test, antimicrobial activity to Mycobacterium 607; format: cell-based
From the text: The endpoint of the hydrolysis reaction can be determined by a reaction in antimicrobial activity of the bleomycin substrate as measured by conventional cup tests using Mycobacterium 607, or by a change in the Rf value during thin layer chromatography.

[3] = tested on: ICR-JCL male mice; details: 10 mice, 10 mg./kg. i.v., 10 days
From the text: The mice were bred for 5 weeks after the final administration and were then dissected. The right and left lungs were observed by microscopic examination.

[4] = tested on: HeLa (S3 bb cell line); details: third day
From the text: wherein the inhibitory effect = [formula] Co: relative number of cell on the first day t3 : relative number of cell on the third day after the addition of a bleomycin (3 mcg/ml in final)
C3 : relative number of cell in negative control on the third day

[5] = tested on: cell culture of Yoshida
[6] = solubility in solvents; format: physicochemical

Row | Compound | antimicrobial activity to Mycobacterium 607 [2] [μ/mg] | Inhibitory effect ([4]; 1.5 mcg/ml.) | Inhibitory effect ([4]; 3 mcg/ml.) | Inhibitory effect ([5]; 0.625 mcg/ml) | Inhibitory effect ([5]; 1.25 mcg/ml) | Inhibitory effect ([5]; 2.5 mcg/ml) | Inhibitory effect ([5]; 5 mcg/ml) | also measured
1 | Cc1c(N)nc([C@H](CC(N)=O)NC[C@H](N)C(N)=O)nc1C(=O)N[C@H](C(=O)N[C@H](C)[C@@H](O)[C@H](C)C(=O)N[C@H](C(=O)NCCc1nc(-c2nc(C(=O)NCCC[S+](C)C)cs2)cs1)[C@@H](C)O)[C@@H](O[C@@H]1O[C@@H](CO)[C@@H](O)[C@H](O)[C@@H]1O[C@H]1O[C@H](CO)[C@@H](O)[C@H](OC(N)=O)[C@@H]1O)c1c[nH]cn1.[Br-] [bleomycin A2, 3-dimethylsulfopropylamino-bleomycin] |  |  |  |  |  |  |  | antimicrobial activity, standard [1]: 1000 μ/mg
2 | Cc1c(N)nc([C@H](CC(N)=O)NC[C@H](N)C(N)=O)nc1C(=O)N[C@H](C(=O)N[C@H](C)[C@@H](O)[C@H](C)C(=O)N[C@H](C(=O)NCCc1nc(-c2nc(C(=O)NCCCCN=C(N)N)cs2)cs1)[C@@H](C)O)[C@@H](O[C@@H]1O[C@@H](CO)[C@@H](O)[C@H](O)[C@@H]1O[C@H]1O[C@H](CO)[C@@H](O)[C@H](OC(N)=O)[C@@H]1O)c1cnc[nH]1 [bleomycin B2, 4-guanidinobutylamino-bleomycin] | 3094 | 33 | 64 | 8.6 | 34.0 | 56.0 | 74.9 | antimicrobial activity to Mycobacterium 607 ([2]; listed as bleomycin): 3015 μ/mg; Total, mice with degree of fibrosis ++ ([3]; Lung L): 1; Total, mice with degree of fibrosis - ([3]; Lung L): 5; Total, mice with degree of fibrosis ± ([3]; Lung L): 1; Total, mice with degree of fibrosis ± (third Total column) ([3]; Lung L): 3; Total, mice with degree of fibrosis ++ ([3]; Lung R): 0; Total, mice with degree of fibrosis - ([3]; Lung R): 4; Total, mice with degree of fibrosis ± ([3]; Lung R): 3; Total, mice with degree of fibrosis ± (third Total column) ([3]; Lung R): 3
3 | Cc1c(N)nc(C(CC(N)=O)NCC(N)C(N)=O)nc1C(=O)NC(C(=O)NC(C)C(O)C(C)C(=O)NC(C(=O)NCCc1nc(-c2nc(C(=O)O)cs2)cs1)C(C)O)C(OC1OC(CO)C(O)C(O)C1OC1OC(CO)C(O)C(OC(N)=O)C1O)c1cnc[nH]1 (centres unmarked) [bleomycinic acid] | 159 |  |  |  |  |  |  | 
4 | benzylamino-bleomycin | 3250 | 38 | 73 | 11.1 | 28.2 | 55.4 | 83.5 | Inhibitory effect ([4]; 6 mcg/ml.): 92
5 | hydrochloride of bleomycinic acid |  |  |  |  |  |  |  | solubility in ethanol, ethyl acetate, acetone and ether ([6]; ethanol, ethyl acetate, acetone, ether): insoluble; solubility in methanol, acetic acid, dimethylsulfoxide ([6]; methanol, acetic acid, dimethylsulfoxide): sparingly soluble; solubility in water ([6]; water): soluble

From patent US3932374A, “Bleomycinic acid and process for preparing thereof” (Zaidan Hojin Biseibutsu Kagaku Kenkyu Kai, priority 1971, dated 1976)
